Test: MALDI-TOF screening of Ni^2+ dependent hydrolysis in a combinatorial peptide library
Assay type: physicochemical
Details: Ni^2+ 2 mM, pH 8.2, 10 mM Tris, score=24/tm
Method in brief: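 Sublibraries of Ac-Gly-Ala-Ser/Thr-X-His-Z-Lys-Phe-Leu-NH2, randomized at Z and fixed at X, were hydrolyzed at 1 mM total peptide with 2 mM Ni2+ in 10 mM Tris, pH 8.2, at 37 °C or 45 °C. Cleavage was scored visually in MALDI-TOF spectra at 2, 4, 6 and 8 h.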

[1] = CH3CO-Gly-Ala-Ser-X-His-Z-Lys-Phe-Leu-NH2 library, 37° C.
[2] = CH3CO-Gly-Ala-Ser-X-His-Z-Lys-Phe-Leu-NH2 library, 45° C.
[3] = CH3CO-Gly-Ala-Thr-X-His-Z-Lys-Phe-Leu-NH2 library, 37° C.
[4] = CH3CO-Gly-Ala-Thr-X-His-Z-Lys-Phe-Leu-NH2 library, 45° C.

| Substance | hydrolysis score from MALDI-TOF screening [1] | hydrolysis score from MALDI-TOF screening [2] | hydrolysis score from MALDI-TOF screening [3] | hydrolysis score from MALDI-TOF screening [4] |
| --- | --- | --- | --- | --- |
| Ac-GASAHSKFL-NH2 [SAHS] | 0 (a score of 0 if no trace of the product of hydrolysis was seen after 8 hours of incubation) | 0 (a score of 0 if no trace of the product of hydrolysis was seen after 8 hours of incubation) | – | – |
| Ac-GASTHVKFL-NH2 [STHV] | 0 (a score of 0 if no trace of the product of hydrolysis was seen after 8 hours of incubation) | 6 (a score of 6 for detection at 4 hours) | – | – |
| Ac-GASKHYKFL-NH2 [SKHY] | 4 (a score of 4 for detection at 6 hours) | 4 (a score of 4 for detection at 6 hours) | – | – |
| Ac-GASSHEKFL-NH2 [SSHE] | 0 (a score of 0 if no trace of the product of hydrolysis was seen after 8 hours of incubation) | 3 (a score of 3 for detection at 8 hours) | – | – |
| Ac-GASIHRKFL-NH2 [SIHR] | 3 (a score of 3 for detection at 8 hours) | 3 (a score of 3 for detection at 8 hours) | – | – |
| Ac-GATLHWKFL-NH2 [TLHW] | – | – | 3 (a score of 3 for detection at 8 hours) | 3 (a score of 3 for detection at 8 hours) |
| Ac-GASTHGKFL-NH2 [STHG] | 0 (a score of 0 if no trace of the product of hydrolysis was seen after 8 hours of incubation) | 0 (a score of 0 if no trace of the product of hydrolysis was seen after 8 hours of incubation) | – | – |
| Ac-GASVHWKFL-NH2 [SVHW] | 4 (a score of 4 for detection at 6 hours) | 4 (a score of 4 for detection at 6 hours) | – | – |
| Ac-GASMHPKFL-NH2 [SMHP] | 0 (a score of 0 if no trace of the product of hydrolysis was seen after 8 hours of incubation) | 0 (a score of 0 if no trace of the product of hydrolysis was seen after 8 hours of incubation) | – | – |
| Ac-GASRHRKFL-NH2 [SRHR] | 4 (a score of 4 for detection at 6 hours) | 12 (a score of 12, if it was seen to be partially hydrolysed at 2 hours) | – | – |
| Ac-GASHHVKFL-NH2 [SHHV] | 6 (a score of 6 for detection at 4 hours) | 6 (a score of 6 for detection at 4 hours) | – | – |
| Ac-GATNHWKFL-NH2 [TNHW] | – | – | 0 (a score of 0 if no trace of the product of hydrolysis was seen after 8 hours of incubation) | 3 (a score of 3 for detection at 8 hours) |
| Ac-GATPHKKFL-NH2 [TPHK] | – | – | – | 0 (a score of 0 if no trace of the product of hydrolysis was seen after 8 hours of incubation) |
| Ac-GATPHTKFL-NH2 [TPHT] | – | – | – | 0 (a score of 0 if no trace of the product of hydrolysis was seen after 8 hours of incubation) |
| Ac-GASFHKKFL-NH2 [SFHK] | 4 (a score of 4 for detection at 6 hours) | 6 (a score of 6 for detection at 4 hours) | – | – |
| Ac-GASNHTKFL-NH2 [SNHT] | 0 (a score of 0 if no trace of the product of hydrolysis was seen after 8 hours of incubation) | 0 (a score of 0 if no trace of the product of hydrolysis was seen after 8 hours of incubation) | – | – |

| Substance | hydrolysis score from MALDI-TOF screening [1] | hydrolysis score from MALDI-TOF screening [2] | hydrolysis score from MALDI-TOF screening [3] | hydrolysis score from MALDI-TOF screening [4] |
| --- | --- | --- | --- | --- |
| Ac-GASWHIKFL-NH2 [SWHI] | 6 (a score of 6 for detection at 4 hours) | 12 (a score of 12, if it was seen to be partially hydrolysed at 2 hours) | – | – |
| Ac-GATLHTKFL-NH2 [TLHT] | – | – | 0 (a score of 0 if no trace of the product of hydrolysis was seen after 8 hours of incubation) | 0 (a score of 0 if no trace of the product of hydrolysis was seen after 8 hours of incubation) |
| Ac-GASVHLKFL-NH2 [SVHL] | 3 (a score of 3 for detection at 8 hours) | 3 (a score of 3 for detection at 8 hours) | – | – |
| Ac-GASWHPKFL-NH2 [SWHP] | 0 (a score of 0 if no trace of the product of hydrolysis was seen after 8 hours of incubation) | 0 (a score of 0 if no trace of the product of hydrolysis was seen after 8 hours of incubation) | – | – |
| Ac-GATMHAKFL-NH2 [TMHA] | – | – | 0 (a score of 0 if no trace of the product of hydrolysis was seen after 8 hours of incubation) | 0 (a score of 0 if no trace of the product of hydrolysis was seen after 8 hours of incubation) |
| Ac-GATVHQKFL-NH2 [TVHQ] | – | – | 0 (a score of 0 if no trace of the product of hydrolysis was seen after 8 hours of incubation) | 0 (a score of 0 if no trace of the product of hydrolysis was seen after 8 hours of incubation) |
| Ac-GATLHYKFL-NH2 [TLHY] | – | – | 0 (a score of 0 if no trace of the product of hydrolysis was seen after 8 hours of incubation) | 0 (a score of 0 if no trace of the product of hydrolysis was seen after 8 hours of incubation) |
| Ac-GATFHAKFL-NH2 [TFHA] | – | – | 0 (a score of 0 if no trace of the product of hydrolysis was seen after 8 hours of incubation) | 0 (a score of 0 if no trace of the product of hydrolysis was seen after 8 hours of incubation) |
| Ac-GATIHHKFL-NH2 [TIHH] | – | – | 0 (a score of 0 if no trace of the product of hydrolysis was seen after 8 hours of incubation) | 0 (a score of 0 if no trace of the product of hydrolysis was seen after 8 hours of incubation) |
| Ac-GASPHRKFL-NH2 [SPHR] | 0 (a score of 0 if no trace of the product of hydrolysis was seen after 8 hours of incubation) | 0 (a score of 0 if no trace of the product of hydrolysis was seen after 8 hours of incubation) | – | – |
| Ac-GASFHSKFL-NH2 [SFHS] | 0 (a score of 0 if no trace of the product of hydrolysis was seen after 8 hours of incubation) | 0 (a score of 0 if no trace of the product of hydrolysis was seen after 8 hours of incubation) | – | – |
| Ac-GASIHYKFL-NH2 [SIHY] | 0 (a score of 0 if no trace of the product of hydrolysis was seen after 8 hours of incubation) | 0 (a score of 0 if no trace of the product of hydrolysis was seen after 8 hours of incubation) | – | – |
| Ac-GATIHTKFL-NH2 [TIHT] | – | – | 0 (a score of 0 if no trace of the product of hydrolysis was seen after 8 hours of incubation) | 0 (a score of 0 if no trace of the product of hydrolysis was seen after 8 hours of incubation) |
| Ac-GASYHIKFL-NH2 [SYHI] | 4 (a score of 4 for detection at 6 hours) | 6 (a score of 6 for detection at 4 hours) | – | – |
| Ac-GATHHNKFL-NH2 [THHN] | – | – | 0 (a score of 0 if no trace of the product of hydrolysis was seen after 8 hours of incubation) | 0 (a score of 0 if no trace of the product of hydrolysis was seen after 8 hours of incubation) |

From US8969516B2, “Method of hydrolysis of peptide bond” (priority 2006, dated 2015)
